These results are taken from patent US11472807B2, “Purine derivatives for use as medicament and for use in treating neurodegenerative or neuro-inflammatory disorders” (COMMISSARIAT À L'ENERGIE ATOMIQUE ET AUX ENERGIES …, priority 2017, dated 2022).

Assay [1] deals with IL-6. Put plainly: IL-6 mRNA in OHSC (RT-qPCR). It is filed as cell-based, mice. The conditions noted are these: 50 μM, 10 days, vs vehicle, P=0.06. As for the experimental part:
FIG. 10. Plots illustrating the effect of Aftin-5 on relative mRNA expression levels of interleukin-1-beta (IL-1β; (A)), interleukin-6 (IL-6; (B)), TNF-alpha (TNFα; (C)) and interleukin-10 (IL-10; (D)) in organotypic hippocampal slice cultures (OHSC). OHSC culture media […] were replaced by incubation medium containing Aftin-5 (50 μM; A50) or vehicle (0.1% DMSO; Veh). 10 days later, total mRNA in lysate was isolated and purified, cDNAs were then synthesized from […] of total mRNA. cDNAs were amplified by quantitative RT-PCR and the relative expression of specific genes was normalized to the housekeeping gene HPRT1 (2^−ΔCt). Mann-Whitney tests were performed and ***p<0.001 indicates significant differences between Aftin-5 and control conditions. Data expressed as means+/−SEM from q=3 independent experiments with n=4-6 inserts/condition and 10 slices/insert. […]
The impact of Aftin-5 on gene expression of different biomarkers was determined by measuring mRNA levels of selected BDNF, CREB, PS95, INS Receptor/IGF-1 receptor, IL-1β, IL-6 in OHSC treated chronically with Aftin-5 or in a total brain from mice exposed to Aftin-5 at either 8 or 30 mg/Kg. […] Threshold cycles (Ct) of target gene and cyclophilin A (Ppia−control housekeeping gene) were recorded and gene expression was calculated as 2^−ΔΔCt(ΔΔCt=ΔCttreated−ΔCtcontrol, ΔCt=Cttarget−CtPpia). […]

Assay [2] has as its system BDNF. Kind of assay: BDNF mRNA in OHSC (RT-qPCR). Type of assay: cell-based. The conditions noted are these: OHSCs from WT mice, 50 μM, 10 days. As to the method:
FIG. 15. Plots illustrating the effect of Aftin-5 on relative mRNA expression levels of Long Term Potentialisation (LTP) biomarkers, i.e CREB (A), PSD95 (B) and BDNF (C) in C57B16J OHSC mice treated chronically with Aftin-5. OHSC culture media of OHSC were replaced by incubation medium containing Aftin-5 (50 μM; A50) or vehicle (0.1% DMSO; Veh). 10 days later, total mRNA in lysate was isolated and purified, cDNAs were then synthesized from […] of total mRNA. cDNAs were amplified by quantitative RT-PCR and the relative expression of specific genes was normalized to the housekeeping gene HPRT1 (2^—ΔCt). […] Data expressed as means+/−SEM from q=3 independent experiments with n=4-6 inserts/condition and 10 slices/insert. […]
The impact of Aftin-5 on gene expression of different biomarkers was determined by measuring mRNA levels of selected BDNF, CREB, PS95, INS Receptor/IGF-1 receptor, IL-1β, IL-6 in OHSC treated chronically with Aftin-5 or in a total brain from mice exposed to Aftin-5 at either 8 or 30 mg/Kg. […] RNA concentration was measured spectrophotometrically at 260 nm in a NanoDrop 2000c (Thermo Scientific, Villebon-sur-Yvette, France) (sample A260 nm/A280 nm ratios over 1.8 indicated reduced genomic DNA contamination). cDNAs were synthesized from 0.5 μg of total RNA with RT^2 First Strand kit (Qiagen, Courtaboeuf, France) according to the manufacturer's protocol and stored at −80° C. […]
(Real-time PCR tracks product formation cycle by cycle.)

The subject of assay [3] is p-Tau (Thr212). Put plainly: p-Tau (Thr212)/total Tau in rat cortical neurons (western-blot). The conditions noted are these: purine derivative 10 μM (A100), 18 h. It is filed as cell-based. As for the experimental part: Cells were lysed in freshly prepared lysis buffer containing in mM: Tris-HCl 50, EDTA 2, EGTA 2, NaCl 100, SDS 0.2%, Triton X-100 1%, proteases inhibitors (Roche Protease Inhibitor Cocktail #04693116001), phosphatases inhibitors (in mM: ammonium molybdate 0.1, β-glycerophosphate 20, NaF 50, Na-pyrophosphate 10, Orthovanadate 1). Protein concentration was measured by the Bradford assay and Laemmli buffer was added to each lysate. Proteins (10 μg per lane) were resolved on 12% Nu-PAGE (LifeTechonoliges #NP0342BOX) using MOPS SDS running buffer and transferred on Immobilon-FL PVDF membrane (Millipore #IPFL00010). Membranes were blocked one hour in TBS Tween20 0.1% BSA 5% at room temperature. Primary antibodies were incubated O/N at 4° C. and detected by Alexa 488 conjugated secondary antibodies (Life Techonologies #A11034 and A11029) diluted 1:1.000 in TBS Tween20 0.05% and 1% BSA. The antibodies specific for pThr212-Tau (Abcam #ab4842), pThr181-Tau (AbCam #ab75679), Tau (Millipore #MAB361), APP (Millipore #07-667) and Actin (Millipore #MAB1501) were diluted in TBS Tween20 0.05% and 1% BSA. Fluorescent signal was visualized with the VersaDoc™ Imaging System (Bio-Rad Laboratories) and quantified with Quantity One® Analysis Software. Grey levels measured for bands of interest were normalized to the corresponding actin bands.
For assessing the protein Tau's phosphorylation, the culture media of rat cortical neurons were replaced by incubation medium containing purine derivatives at 10 μM (A100) or vehicle (0.1% DMSO; Control). After 18 h incubation p-Tau (Thr212) and total Tau were quantified in the cellular extracts by western-blot.

With `CC[C@H](CO)Nc1nc(N(C)c2ccccc2)c2ncn(C(C)C)c2n1` [Aftin-5], the “IL-6 mRNA synthesis” value in assay [1] was “do not achieve significance”. Besides, the “BDNF mRNA” value in assay [2] is “transcriptional upregulation”. In assay [3], the “Attenuation of P-Tau/Tau ratio” value is reported as “+(>1 μM) (“+” means that the tested compound shows an anti-inflammatory and/or attenuation of Tau's phosphorylation property with a concentration higher than 1 μM)”.
